Assay results from paper PMC10093438, “α-Mangostin Promotes In Vitro and In Vivo Degradation of Androgen Receptor and AR-V7 Splice Variant in Prostate Cancer Cells” (Cancers, 2023).

Molecular target: T1, BiP (GRP78) (Homo sapiens, UniProt P11021)
T1 construct: gene HSPA5; recombinant His-GST-BiP (BiP-N-His-GST), expressed in E. coli
Experiment: SPR (Biacore T200, His-capture plus amine coupling on NTA chip)
Type: binding

T1 sequence (P11021 19-654): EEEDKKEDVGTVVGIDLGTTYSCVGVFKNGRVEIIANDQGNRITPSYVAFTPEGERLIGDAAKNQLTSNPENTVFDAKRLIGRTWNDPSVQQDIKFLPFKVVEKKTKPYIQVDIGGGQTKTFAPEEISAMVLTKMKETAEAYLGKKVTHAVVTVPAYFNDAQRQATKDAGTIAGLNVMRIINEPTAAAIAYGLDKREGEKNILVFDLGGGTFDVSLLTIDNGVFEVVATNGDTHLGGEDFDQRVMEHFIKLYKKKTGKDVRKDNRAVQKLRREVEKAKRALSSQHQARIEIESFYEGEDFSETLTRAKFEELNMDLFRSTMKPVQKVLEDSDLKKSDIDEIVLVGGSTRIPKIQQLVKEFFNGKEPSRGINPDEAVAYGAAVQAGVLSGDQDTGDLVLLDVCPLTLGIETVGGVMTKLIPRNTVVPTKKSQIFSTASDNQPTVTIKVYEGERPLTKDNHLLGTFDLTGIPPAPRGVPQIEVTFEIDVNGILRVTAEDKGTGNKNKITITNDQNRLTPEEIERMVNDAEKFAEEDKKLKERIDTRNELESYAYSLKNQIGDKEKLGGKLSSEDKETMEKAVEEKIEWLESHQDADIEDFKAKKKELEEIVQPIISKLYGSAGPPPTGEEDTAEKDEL

COc1c(O)cc2oc3cc(O)c(CC=C(C)C)c(O)c3c(=O)c2c1CC=C(C)C [α-Mangostin]
Kd: 21.7 µM
